# Reference: ChEMBL document CHEMBL4715692, “Design, synthesis and activity evaluation of novel peptide fusion inhibitors targeting HIV-1 gp41” (Bioorg Med Chem, 2016)
# Calls of active or inactive are those of the source. The calls are words filed in the database; no cut-off is given here. Where a SMILES comes first, the peptide text is derived from it. The star is where a group is joined. X1 = CCCCCCCCCCCCCCC(=O)O*
# Assays:
# [1] = Inhibition of gp41 in HIV1 3B infected in human HeLa-MAGI-CCR5 cells harboring reporter gene comprising HIV1 LTR in the upstream and lacZ gene of Escherichia coli in the downstream assessed as inhibition of cell-cell fusion by optical microscopy analysis; assay type: cell-based; settings: Human immunodeficiency virus 1, 3B
# [2] = test system: Human immunodeficiency virus 1; experiment: Binding affinity to gp41 NHR helix in HIV1 assessed as inhibition of gp41 6-helix conformation incubated for 1 hr by native PAGE analysis
# [3] = test system: Human immunodeficiency virus 1; experiment: Binding affinity to gp41 NHR helix in HIV1 assessed as inhibition of gp41 6-helix conformation incubated for 1 hr by SDS-PAGE analysis
# [4] = test system: Human immunodeficiency virus 1; experiment: Binding affinity to gp41 NHR helix in HIV1 assessed as interaction between compound-gp41 5-helix causing band deviation incubated for 1 hr by native PAGE analysis
# [5] = test system: Human immunodeficiency virus 1; experiment: Binding affinity to gp41 NHR helix in HIV1 assessed as interaction between compound-gp41 5-helix causing band deviation incubated for 1 hr by SDS-PAGE analysis
Compound,IC50 [1] [nM],other results
CCCCCCCCCCCCCCC(=O)OC(=O)[C@H](CCC(N)=O)NC(=O)[C@H](CCC(N)=O)NC(=O)[C@H](CCCNC(=N)N)NC(=O)[C@H](CCC(N)=O)NC(=O)[C@H](C)NC(=O)[C@H](CC(=O)O)NC(=O)[C@H](CCCCN)NC(=O)[C@@H](NC(=O)[C@H](CC(C)C)NC(=O)[C@H](C)NC(=O)[C@H](CCC(=O)O)NC(=O)[C@@H](NC(=O)[C@H](CC(N)=O)NC(=O)[C@H](CCCNC(=N)N)NC(=O)[C@@H](NC(=O)[C@H](Cc1ccc(O)cc1)NC(=O)[C@H](CC(N)=O)NC(=O)[C@H](CCC(=O)O)NC(=O)[C@@H](NC(=O)[C@H](CCC(=O)O)NC(=O)[C@H](CCCNC(=N)N)NC(=O)[C@H](CC(=O)O)NC(=O)[C@H](Cc1c[nH]c2ccccc12)NC(=O)[C@H](CCC(N)=O)NC(=O)[C@H](CCC(=O)O)NC(=O)[C@H](Cc1c[nH]c2ccccc12)NC(=O)[C@@H](NC(=O)[C@H](CCCCN)NC(=O)[C@H](CC(N)=O)NC(=O)[C@H](CC(N)=O)NC(=O)[C@H](Cc1c[nH]c2ccccc12)NC(=O)[C@H](CCC(=O)O)NC(=O)[C@@H](N)CCC(N)=O)[C@@H](C)O)[C@@H](C)CC)C(C)C)[C@@H](C)CC)[C@@H](C)CC (H-QEWNNKTWEQWDREIENYVRNIEALIKDAQRQQ-X1),222,
CC[C@H](C)[C@H](NC(=O)[C@H](CC(C)C)NC(=O)[C@H](CCC(=O)O)NC(=O)[C@H](CCC(=O)O)NC(=O)[C@@H](NC(=O)[C@H](CCCCN)NC(=O)[C@H](CCCCN)NC(=O)[C@@H](NC(=O)[C@H](Cc1ccc(O)cc1)NC(=O)[C@H](CCCNC(=N)N)NC(=O)[C@H](CCC(=O)O)NC(=O)[C@@H](NC(=O)[C@H](CCC(=O)O)NC(=O)[C@H](CC(=O)O)NC(=O)[C@H](CCCNC(=N)N)NC(=O)[C@H](Cc1c[nH]c2ccccc12)NC(=O)[C@H](CC(=O)O)NC(=O)[C@H](CS)NC(=O)[C@H](Cc1c[nH]c2ccccc12)NC(=O)[C@@H](NC(=O)[C@@H](N)CCSC)[C@@H](C)O)[C@@H](C)CC)[C@@H](C)O)[C@@H](C)CC)C(=O)N[C@@H](CCCNC(=N)N)C(=O)N[C@@H](C)C(=O)N[C@@H](C)C(=O)N[C@@H](CCC(N)=O)C(=O)N[C@@H](CCC(=O)O)C(=O)N[C@@H](CC(C)C)C(=O)N[C@@H](CCC(N)=O)C(=O)N[C@@H](CCC(=O)O)C(=O)N[C@@H](CCCCN)C(=O)N[C@@H](CC(N)=O)C(=O)N[C@@H](CCC(=O)O)C(=O)N[C@@H](C)C(=O)N[C@@H](C)C(=O)N[C@@H](CC(C)C)C(=O)N[C@@H](CCCCN)C(=O)N[C@@H](CCC(=O)O)C(=O)N[C@@H](CC(C)C)C(=O)O,159,
CC[C@H](C)[C@H](NC(=O)[C@H](CC(C)C)NC(=O)[C@H](CCC(=O)O)NC(=O)[C@H](CCC(=O)O)NC(=O)[C@@H](NC(=O)[C@H](CCCCN)NC(=O)[C@@H](CCCCN)NC(=O)[C@@H](NC(=O)[C@H](Cc1ccc(O)cc1)NC(=O)[C@H](CCCNC(=N)N)NC(=O)[C@H](CCC(=O)O)NC(=O)[C@@H](NC(=O)[C@H](CCC(=O)O)NC(=O)[C@H](CC(=O)O)NC(=O)[C@H](CCCNC(=N)N)NC(=O)[C@H](Cc1c[nH]c2ccccc12)NC(=O)[C@H](CC(=O)O)NC(=O)[C@H](CS)NC(=O)[C@H](Cc1c[nH]c2ccccc12)NC(=O)[C@@H](NC(=O)[C@@H](N)CCSC)[C@@H](C)O)[C@@H](C)CC)[C@@H](C)O)[C@@H](C)CC)C(=O)N[C@@H](CCCNC(=N)N)C(=O)N[C@@H](C)C(=O)N[C@@H](C)C(=O)N[C@@H](CCC(N)=O)C(=O)N[C@@H](CCC(=O)O)C(=O)N[C@@H](CC(C)C)C(=O)N[C@@H](CCC(N)=O)C(=O)N[C@@H](CCC(=O)O)C(=O)N[C@@H](CCCCN)C(=O)N[C@@H](CC(N)=O)C(=O)N[C@@H](CCC(=O)O)C(=O)N[C@@H](C)C(=O)N[C@@H](C)C(=O)N[C@@H](CC(C)C)C(=O)N[C@@H](CCCCN)C(=O)N[C@@H](CCC(=O)O)C(=O)N[C@@H](CC(C)C)C(=O)O,57.2,
H-QEWNNKTWEQWDREIENYVRNIEALIKDAQRQQ-OH,866,
H-SIWNNMTWCDWRDEIEEYTKKIEELIKKSQEQASWNWF-OH,203,
H-MTWCDWRDEIERYTKKIEELIRAAQEWQEKNEAALKEL-OH,53,inhibition [2]: Active; inhibition [3]: Active; Activity [4]: Active; Activity [5]: Active
H-VEWNARAWVAWRNRIENYAKKIEKLIRQSQEQQ-OH,1000,
H-RAWVAWRNKIENYTRRIEELIEELIRRSQEQERRQ-OH,> 2430,
H-RAWVAWRNKIDRYTKKIEELIRELIRAAQELQEKNEAALKEL-OH,338,
